Measurements taken from ChEMBL document CHEMBL3259536, “New 2H-chromene-3-carboxamide derivatives: design, synthesis and use as inhibitors of hMAO” (Eur J Med Chem, 2014).

Assays:
[1] = molecular target: T1, Amine oxidase [flavin-containing] B (Homo sapiens, UniProt P27338); test: Inhibition of human recombinant MAO-B expressed in baculovirus infected insect cell microsomes assessed as p-tyramine conversion to resorufin and H2O2 at 60 uM after 15 mins by fluorimetric assay; details: 0.25 h
T1 sequence (P27338 whole entry): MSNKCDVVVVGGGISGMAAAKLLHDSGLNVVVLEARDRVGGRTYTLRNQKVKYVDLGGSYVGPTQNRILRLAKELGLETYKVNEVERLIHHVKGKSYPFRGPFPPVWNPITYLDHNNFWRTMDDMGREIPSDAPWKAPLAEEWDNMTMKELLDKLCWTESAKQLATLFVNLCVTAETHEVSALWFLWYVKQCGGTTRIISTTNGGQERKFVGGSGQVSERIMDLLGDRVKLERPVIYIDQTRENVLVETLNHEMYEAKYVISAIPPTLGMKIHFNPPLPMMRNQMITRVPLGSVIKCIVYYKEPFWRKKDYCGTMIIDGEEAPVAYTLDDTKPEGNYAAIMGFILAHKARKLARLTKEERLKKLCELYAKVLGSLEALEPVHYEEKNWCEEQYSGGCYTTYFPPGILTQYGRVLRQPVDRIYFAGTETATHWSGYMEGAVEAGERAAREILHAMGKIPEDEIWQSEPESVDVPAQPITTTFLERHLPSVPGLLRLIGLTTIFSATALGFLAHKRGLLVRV

[2] = molecular target: T2, Amine oxidase [flavin-containing] A (Homo sapiens, UniProt P21397); test: Inhibition of human recombinant MAO-A expressed in baculovirus infected insect cell microsomes assessed as p-tyramine conversion to resorufin and H2O2 at 60 uM after 15 mins by fluorimetric assay; details: 0.25 h
T2 sequence (P21397 whole entry): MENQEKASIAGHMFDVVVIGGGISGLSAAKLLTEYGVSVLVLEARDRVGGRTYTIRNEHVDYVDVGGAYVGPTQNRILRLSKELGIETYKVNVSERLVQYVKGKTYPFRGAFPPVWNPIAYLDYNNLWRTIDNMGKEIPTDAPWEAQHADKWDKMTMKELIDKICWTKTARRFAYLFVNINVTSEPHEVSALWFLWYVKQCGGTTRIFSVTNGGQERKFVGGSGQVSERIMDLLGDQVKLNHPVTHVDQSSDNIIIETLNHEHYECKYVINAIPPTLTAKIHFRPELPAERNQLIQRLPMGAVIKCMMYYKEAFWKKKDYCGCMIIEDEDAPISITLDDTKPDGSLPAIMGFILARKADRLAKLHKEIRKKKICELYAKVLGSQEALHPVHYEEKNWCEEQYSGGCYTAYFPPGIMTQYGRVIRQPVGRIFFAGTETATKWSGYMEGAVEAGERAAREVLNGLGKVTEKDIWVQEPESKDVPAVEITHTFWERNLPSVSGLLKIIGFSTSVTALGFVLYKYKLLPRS

[3] = species: Homo sapiens; test: Selectivity index, ratio of IC50 for human recombinant MAO-A to IC50 for human recombinant MAO-B
[4] = molecular target: T1, Amine oxidase [flavin-containing] B; test: Inhibition of human recombinant MAO-B expressed in baculovirus infected insect cell microsomes assessed as p-tyramine conversion to resorufin and H2O2 after 15 mins by fluorimetric assay
[5] = molecular target: T2, Amine oxidase [flavin-containing] A; test: Inhibition of human recombinant MAO-A expressed in baculovirus infected insect cell microsomes assessed as p-tyramine conversion to resorufin and H2O2 after 15 mins by fluorimetric assay

Question: Which “inhibition (INH)” value [1] does the source give for `O=C(c1cc2cc(Br)cc(Br)c2oc1=O)N(c1ccccc1)c1ccccc1` here?
Answer: Not Active

Question: And the “inhibition (INH)” value [2]?
Answer: Not Active

Question: What does the source list for `O=C(NCCCN1CCOCC1)c1cc2cc([N+](=O)[O-])ccc2oc1=O`?
Answer: Ratio IC50 [3]: 1.3; IC50 [4]: 46.1 µM; inhibition (INH) [2]: Not Active

Question: For `Cc1ccccc1NC(=O)c1cc2cc(Br)cc(Br)c2oc1=O`, which Ratio IC50 [3] is on record?
Answer: 12.8

Question: What about the IC50 [4] of the same molecule?
Answer: 4.68 µM

Question: What about the “inhibition (INH)” value [2] of the same molecule?
Answer: Not Active

Question: `O=C(c1cc2ccccc2oc1=O)N(c1ccccc1)c1ccccc1` was tested. Which “inhibition (INH)” value [1] did it give?
Answer: Not Active

Question: And the “inhibition (INH)” value [2]?
Answer: Not Active

Question: For `Cc1cccc(NC(=O)c2cc3ccccc3oc2=O)c1`, which “inhibition (INH)” value [2] is on record?
Answer: Not Active

Question: Which results are given for `Cc1cccc(NC(=O)c2cc3cc([N+](=O)[O-])ccc3oc2=O)c1`?
Answer: Ratio IC50 [3]: 1.5; IC50 [4]: 39.1 µM; inhibition (INH) [2]: Not Active

Question: For `O=C(NCCCN1CCOCC1)c1cc2cc(Br)cc(Br)c2oc1=O`, which IC50 [5] is on record?
Answer: 32.4 µM

Question: And the Ratio IC50 [3]?
Answer: 3.1

Question: What about the IC50 [4] of the same molecule?
Answer: 10.6 µM

Question: How did the Ratio IC50 [3] turn out when `Cc1ccccc1NC(=O)c1cc2ccccc2oc1=O` was run?
Answer: 20.3

Question: What about the IC50 [4] of the same molecule?
Answer: 2.96 µM

Question: What about the “inhibition (INH)” value [2] of the same molecule?
Answer: Not Active

Question: `Cc1ccccc1NC(=O)c1cc2cc([N+](=O)[O-])ccc2oc1=O` was tested. Which Ratio IC50 [3] did it give?
Answer: 2

Question: What about the IC50 [4] of the same molecule?
Answer: 29.4 µM

Question: And the “inhibition (INH)” value [2]?
Answer: Not Active

Question: Which Ratio IC50 [3] does the source give for `COc1ccccc1NC(=O)c1cc2cc([N+](=O)[O-])ccc2oc1=O` here?
Answer: 1.2

Question: What about the IC50 [4] of the same molecule?
Answer: 50 µM

Question: What about the “inhibition (INH)” value [2] of the same molecule?
Answer: Not Active

Question: For `Cc1cccc(NC(=O)c2cc3cc(Br)cc(Br)c3oc2=O)c1`, which Ratio IC50 [3] is on record?
Answer: 2.78

Question: And the IC50 [4]?
Answer: 21.5 µM

Question: And the “inhibition (INH)” value [2]?
Answer: Not Active

Question: Which results are given for `O=C(Nc1cccc(C(F)(F)F)c1)c1cc2cc(Br)cc(Br)c2oc1=O`?
Answer: Ratio IC50 [3]: 8.46; IC50 [4]: 7.09 µM; inhibition (INH) [2]: Not Active

Question: What does the source list for `O=C(Nc1cccc(C(F)(F)F)c1)c1cc2cc([N+](=O)[O-])ccc2oc1=O`?
Answer: Ratio IC50 [3]: 2.6; IC50 [4]: 22.8 µM; inhibition (INH) [2]: Not Active

Question: With `CCC(C)NC(=O)c1cc2cc([N+](=O)[O-])ccc2oc1=O` (centres undefined) as the molecule, how does the IC50 [5] read?
Answer: 37.5 µM

Question: And the Ratio IC50 [3]?
Answer: 1.97

Question: What about the IC50 [4] of the same molecule?
Answer: 19.1 µM

Question: Which results are given for `COc1ccccc1NC(=O)c1cc2ccccc2oc1=O`?
Answer: Ratio IC50 [3]: 1.7; IC50 [4]: 35.4 µM; inhibition (INH) [2]: Not Active

Question: Which Ratio IC50 [3] does the source give for `COc1ccccc1NC(=O)c1cc2cc(Br)cc(Br)c2oc1=O` here?
Answer: 2.97

Question: And the IC50 [4]?
Answer: 20.2 µM

Question: And the “inhibition (INH)” value [2]?
Answer: Not Active

Question: What does the source list for `O=C(NCCCN1CCOCC1)c1cc2ccccc2oc1=O`?
Answer: IC50 [5]: 42.3 µM; Ratio IC50 [3]: 3.1; IC50 [4]: 13.5 µM

Question: With `CCCCCCN(CCCCCC)C(=O)c1cc2ccccc2oc1=O` as the molecule, how does the IC50 [5] read?
Answer: 14.2 µM

Question: And the Ratio IC50 [3]?
Answer: 1.8

Question: What about the IC50 [4] of the same molecule?
Answer: 8.05 µM

Question: Which “inhibition (INH)” value [2] does the source give for `O=C(Nc1cccc(C(F)(F)F)c1)c1cc2ccccc2oc1=O` here?
Answer: Not Active

Question: What does the source list for `CC(C)(C)NC(=O)c1cc2cc(Br)cc(Br)c2oc1=O`?
Answer: IC50 [5]: 31.5 µM; Ratio IC50 [3]: 2.1; IC50 [4]: 14.7 µM
